The source of these data is patent US20230192705A1, “SHP2 INHIBITORS, COMPOSITIONS AND USES THEREOF” (Betta Pharmaceuticals Co., Ltd, priority 2020, published 2023).

Structures are written as SMILES.

The target of the experiment is T1, SHP2 (Homo sapiens, UniProt Q06124).
T1 sequence (Q06124 1-593): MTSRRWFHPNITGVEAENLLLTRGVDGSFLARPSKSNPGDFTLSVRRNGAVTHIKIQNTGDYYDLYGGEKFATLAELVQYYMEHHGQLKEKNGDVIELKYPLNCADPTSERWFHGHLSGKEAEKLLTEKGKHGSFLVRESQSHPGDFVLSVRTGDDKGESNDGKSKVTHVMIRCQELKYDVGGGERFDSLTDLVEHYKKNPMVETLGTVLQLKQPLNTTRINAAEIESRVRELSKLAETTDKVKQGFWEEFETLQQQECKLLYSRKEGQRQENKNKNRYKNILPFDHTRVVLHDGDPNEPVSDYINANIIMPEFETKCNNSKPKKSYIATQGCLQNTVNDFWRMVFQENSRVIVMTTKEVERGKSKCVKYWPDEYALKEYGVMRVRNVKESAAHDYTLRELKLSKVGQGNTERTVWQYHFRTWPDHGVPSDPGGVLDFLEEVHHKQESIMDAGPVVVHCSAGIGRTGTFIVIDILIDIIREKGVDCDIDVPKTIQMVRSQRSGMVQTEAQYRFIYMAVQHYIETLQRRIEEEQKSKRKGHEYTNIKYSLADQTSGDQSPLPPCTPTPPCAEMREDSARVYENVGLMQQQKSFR
The experiment in a line: SHP2 allosteric inhibitor enzyme activity assay (DiFMUP fluorescence). Format: biochemical. The settings on record: class symbols. The procedure, abridged: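 SHP2 activated by 0.5 μM IRS1_pY1172(dPEG8)pY1222 peptide, 0.2 ng enzyme per well, 1 h at room temperature with compound (1 μM top, 3-fold series), then DiFMUP substrate 1 h. Buffer: 60 mM HEPES, 75 mM NaCl, 75 mM KCl, 0.05% BRIJ-35, 1 mM EDTA, 5 mM DTT. Fluorescence ex 340/em 450 nm; IC50 by variable-slope fit.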
What is called IC50 is the concentration that inhibits the measured activity by half. With `N[C@@H]1c2ccccc2CC12CCN(c1nc3[nH]nc(C4(c5ncccn5)CC4)c3c(=O)[nH]1)CC2` [Example 245, (S)-6-(1-amino-1,3-dihydrospiro[indene-2,4′-piperidin]-1′-yl)-3-(1-(pyrimidin-2-yl)cyclopropyl)-1,5-dihydro-4H-pyrazolo[3,4-d]pyrimidin-4-one], the IC50 was no more than 20 nM. Then `N[C@@H]1c2ccccc2CC12CCN(c1nc3[nH]nc(C4(c5nn[nH]n5)CC4)c3c(=O)[nH]1)CC2` [Example 246, (S)-3-(1-(2H-tetrazol-5-yl)cyclopropyl)-6-(1-amino-1,3-dihydrospiro[indene-2,4′-piperidin]-1′-yl)-1,5-dihydro-4H-pyrazolo[3,4-d]pyrimidin-4-one], with no more than 20 nM; and `N[C@@H]1c2ccccc2CC12CCN(c1nc3[nH]nc(C4(c5ccnc6c5CCCN6)CC4)c3c(=O)[nH]1)CC2` [Example 79, (S)-6-(1-amino-1,3-dihydrospiro[indene-2,4′-piperidin]-1′-yl)-3-(1-(5,6,7,8-tetrahydro-1,8-naplitliyridin-4-yl)cyclopropyl)-1,5-dihydro-4H-pyrazolo[3,4-d]pyrimidin-4-one], with no more than 20 nM. `N[C@@H]1c2ccccc2CC12CCN(c1cnc3c(C4(c5ccccc5)CC4)n[nH]c3n1)CC2` [Example 2, (S)-1′-(3-(1-phenylcyclopropyl)-1H-pyrazolo[3,4-b]pyrazin-6-yl)-1,3-dihydrospiro[indene-2,4′-piperidin]-1-amine] yielded an IC50 of no more than 20 nM. Then `C[C@@H]1OCC2(CCN(c3ncc4c(C5(c6ccccc6)CC5)n[nH]c4n3)CC2)[C@@H]1N` [Example 267, (3S,4S)-3-methyl-8-(3-(1-phenylcyclopropyl)-1H-pyrazolo[3,4-d]pyrimidin-6-yl)-2-oxa-8-azaspiro[4.5]decan-4-amine], with 20 to 60 nM. The result for `N[C@@H]1c2ccccc2CC12CCN(c1nc3[nH]nc(C4(c5cnn(-c6ccccc6)c5)CC4)c3c(=O)[nH]1)CC2` [Example 56, (S)-6-(1-amino-1,3-dihydrospiro[indene-2,4′-piperidin]-1′-yl)-3-(1-(1-phenyl-1H-pyrazol-4-yl)cyclopropyl)-1,5-dihydro-4H-pyrazolo[3,4-d]pyrimidin-4-one] reads 20 to 60 nM; that for `Cn1ncc(-c2cccc(C3(c4n[nH]c5nc(N6CCC7(CC6)Cc6ccccc6[C@H]7N)[nH]c(=O)c45)CC3)c2)n1` [Example 37, (S)-6-(1-amino-1,3-dihydrospiro[indene-2,4′-piperidin]-1′-yl)-3-(1-(3-(2-methyl-2H-1,2,3-triazol-4-yl)phenyl)cyclopropyl)-1,5-dihydro-4H-pyrazolo[3,4-d]pyrimidin-4-one], no more than 20 nM; that for `N[C@@H]1c2ccccc2CC12CCN(c1nc3[nH]nc(C4=CCCc5nc(C(F)(F)F)cc(C(F)(F)F)c54)c3c(=O)[nH]1)CC2` [Example 137, (S)-6-(1-amino-1,3-dihydrospiro[indene-2,4′-piperidin]-1′-yl)-3-(2,4-bis(trifluoromethyl)-7,8-dihydroquinolin-5-yl)-1,5-dihydro-4H-pyrazolo[3,4-d]pyrimidin-4-one], 20 to 60 nM. `C[C@@H]1OCC2(CCN(c3nc4[nH]nc(C5(c6ccc(F)cc6)CC5)c4c(=O)[nH]3)CC2)[C@@H]1N` [Example 292, 6-((3S,4S)-4-amino-3-methyl-2-oxa-8-azaspiro[4.5]decan-8-yl)-3-(1-(4-fluorophenyl)cyclopropyl)-1,5-dihydro-4H-pyrazolo[3,4-d]pyrimidin-4-one]: the IC50 was 20 to 60 nM. Then `Cn1ccc2c1CCC=C2c1n[nH]c2nc(N3CCC4(CC3)Cc3ccccc3[C@H]4N)[nH]c(=O)c12` [Example 120, (S)-6-(1-amino-1,3-dihydrospiro[indene-2,4′-piperidin]-1′-yl)-3-(1-methyl-6,7-dihydro-1H-indol-4-yl)-1,5-dihydro-4H-pyrazolo[3,4-d]pyrimidin-4-one], with no more than 20 nM; and `N#Cc1ccc2c(c1)[C@@H](N)C1(CCN(c3nc4[nH]nc(C5(c6ccccc6)CC5)c4c(=O)[nH]3)CC1)C2` [Example 197, (S)-1-amino-1′-(4-oxo-3-(1-phenylcyclopropyl)-4,5-dihydro-1H-pyrazolo[3,4-d]pyrimidin-6-yl)-1,3-dihydrospiro[indene-2,4′-piperidine]-6-carbonitrile], with no more than 20 nM; and `Cc1ncc2c(n1)CC(C)(C)C=C2c1n[nH]c2nc(N3CCC4(CC3)Cc3ccccc3[C@H]4N)[nH]c(=O)c12` [Example 147, (S)-6-(l-amino-1,3-dihydrospiro[indene-2,4'-piperidin]-1′-yl)-3-(2,7,7-trimethyl-7,8-dihydroquinazolin-5-yl)-1,5-dihydro-4H-pyrazolo[3,4-d]pyrimidin-4-one], with no more than 20 nM. Consider `C[C@@H]1OCC2(CCN(c3nc4[nH]nc(C5(c6ccncc6)CC5)c4c(=O)[nH]3)CC2)[C@@H]1N` [Example 274, 6-((3S,4S)-4-amino-3-methyl-2-oxa-8-azaspiro[4.5]decan-8-yl)-3-(1-(pyridin-4-yl)cyclopropyl)-1,5-dihydro-4H-pyrazolo[3,4-d]pyrimidin-4-one], for which the IC50 is 20 to 60 nM. On to `N[C@@H]1c2ccccc2CC12CCN(c1nc3[nH]nc(C4(c5ccnc(C(F)(F)F)c5)CC4)c3c(=O)[nH]1)CC2` [Example 27, (S)-6-(1-amino-1,3-dihydrospiro[indene-2,4′-piperidin]-1′-yl)-3-(1-(2-(trifluoromethyl)pyridin-4-yl)cyclopropyl)-1,5-dihydro-4H-pyrazolo[3,4-d]pyrimidin-4-one], for which the IC50 is no more than 20 nM. `C[C@@H]1OCC2(CCN(c3nc4[nH]nc(C5(c6ccccc6)CC5)c4c(=O)[nH]3)CC2)[C@@H]1N` [Example 270, 6-((3S,4S)-4-amino-3-methyl-2-oxa-8-azaspiro[4.5]decan-8-yl)-3-(1-phenylcyclopropyl)-1,5-dihydro-4H-pyrazolo[3,4-d]pyrimidin-4-one] registered an IC50 of 20 to 60 nM.

Consider `CC(=O)c1cccc(C2(c3n[nH]c4nc(N5CCC6(CC5)CO[C@H](C)[C@@H]6N)[nH]c(=O)c34)CC2)c1` [Example 316, 3-(1-(3-acetylphenyl)cyclopropyl)-6-((3R,4R)-4-amino-3-methyl-2-oxa-8-azaspiro[4.5]decan-8-yl)-1,5-dihydro-4H-pyrazolo[3,4-d]pyrimidin-4-one], for which the IC50 lay in the range of 20 to 60 nM. Compound `N[C@@H]1c2ccccc2CC12CCN(c1nc3[nH]nc(C4(c5ccc(F)c(F)c5)CC4)c3c(=O)[nH]1)CC2` [Example 20, (S)-6-(1-amino-1,3-dihydrospiro[indene-2,4′-piperidin]-1′-yl)-3-(1-(3,4-difluorophenyl)cyclopropyl)-1,5-dihydro-4H-pyrazolo[3,4-d]pyrimidin-4-one] yielded an IC50 of no more than 20 nM. The result for `N[C@@H]1c2cc(Cl)ccc2CC12CCN(c1nc3[nH]nc(C4(c5ccccc5)CC4)c3c(=O)[nH]1)CC2` [Example 194, (S)-6-(1-amino-6-chloro-1,3-dihydrospiro[indene-2,4′-piperidin]-1′-yl)-3-(1-phenylcyclopropyl)-1,5-dihydro-4H-pyrazolo[3,4-d]pyrimidin-4-one] reads no more than 20 nM. Then `C[C@@H]1OCC2(CCN(c3nc4[nH]nc(C5(c6ccc7ocnc7c6)CC5)c4c(=O)[nH]3)CC2)[C@@H]1N` [Example 287, 6-((3S,4S)-4-amino-3-methyl-2-oxa-8-azaspiro[4.5]decan-8-yl)-3-(1-(benzo[d]oxazol-5-yl)cyclopropyl)-1,5-dihydro-4H-pyrazolo[3,4-d]pyrimidin-4-one], with 20 to 60 nM; and `C[C@@H]1OCC2(CCN(c3nc4[nH]nc(C5(c6ccc(O)cc6)CC5)c4c(=O)[nH]3)CC2)[C@@H]1N` [Example 311, 6-((3S,4S)-4-amino-3-methyl-2-oxa-8-azaspiro[4.5]decan-8-yl)-3-(1-(4-hydroxyphenyl)cyclopropyl)-1,5-dihydro-4H-pyrazolo[3,4-d]pyrimidin-4-one], with 20 to 60 nM.

Compound `Cc1cc(C(F)(F)F)c2c(n1)CCC=C2c1n[nH]c2nc(N3CCC4(CC3)Cc3ccccc3[C@H]4N)[nH]c(=O)c12` [Example 140, (S)-6-(1-amino-1,3-dihydrospiro[indene-2,4′-piperidin]-1′-yl)-3-(2-methyl-4-(trifluoromethyl)-7,8-dihydroquinolin-5-yl)-1,5-dihydro-4H-pyrazolo[3,4-d]pyrimidin-4-one] registered an IC50 of 20 to 60 nM. The result for `N[C@@H]1Cc2ccccc2C12CCN(c1nc3[nH]nc(C4(c5ccccc5)CC4)c3c(=O)[nH]1)CC2` [Example 198, (R)-6-(2-amino-2,3-dihydrospiro[indene-1,4′-piperidin]-1′-yl)-3-(1-phenylcyclopropyl)-1,5-dihydro-4H-pyrazolo[3,4-d]pyrimidin-4-one] reads 20 to 60 nM; that for `N[C@@H]1c2ccccc2CC12CCN(c1nc3[nH]nc(C4=CCOc5ncccc54)c3c(=O)[nH]1)CC2` [Example 116, (S)-6-(1-amino-1,3-dihydrospiro[indene-2,4′-piperidin]-1′-yl)-3-(2H-pyrano[2,3-b]pyridin-4-yl)-1,5-dihydro-4H-pyrazolo[3,4-d]pyrimidin-4-one], no more than 20 nM.
